The supplement of paper PMC10307832

Legend:
Assay in all cases: relative viability (nuclei count vs DMSO), 5 days (fraction); higher = more cells survive
Vemurafenib + Pictilisib = compound: CCCS(=O)(=O)Nc1ccc(F)c(C(=O)c2c[nH]c3ncc(-c4ccc(Cl)cc4)cc23)c1F [Vemurafenib] + CS(=O)(=O)N1CCN(Cc2cc3nc(-c4cccc5[nH]ncc45)nc(N4CCOCC4)c3s2)CC1 [Pictilisib] (partner 1 µM)
Method in brief: (§1)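 After 5 days of treatment, lung cancer cells in 1536-well plates were fixed and stained in a single step (final 0.05% Triton X-100, 1% formaldehyde, 1 ug/ml Hoechst) and their nuclei counted on 4× images. Treatment had been applied by pin tool the day after seeding as one drug alone or as a fixed anchor-drug dose with five library-drug doses (not always all listed) in √10 steps. Relative viability is the nuclei count of treated wells divided by that of vehicle wells, and values are medians of duplicate plates.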

Alpelisib + Dasatinib = compound: Cc1nc(NC(=O)N2CCC[C@H]2C(N)=O)sc1-c1ccnc(C(C)(C)C(F)(F)F)c1 [Alpelisib] + Cc1nc(Nc2ncc(C(=O)Nc3c(C)cccc3Cl)s2)cc(N2CCN(CCO)CC2)n1 [Dasatinib] (partner 0.075 µM)
Method in brief: as §1

[1] = compound: CCCS(=O)(=O)Nc1ccc(F)c(C(=O)c2c[nH]c3ncc(-c4ccc(Cl)cc4)cc23)c1F [Vemurafenib] + CC(=O)c1c(C)c2cnc(Nc3ccc(N4CCNCC4)cn3)nc2n(C2CCCC2)c1=O [Palbociclib] (partner 0.5 µM)
Method in brief: as §1

Alpelisib + Trametinib = compound: Cc1nc(NC(=O)N2CCC[C@H]2C(N)=O)sc1-c1ccnc(C(C)(C)C(F)(F)F)c1 [Alpelisib] + CC(=O)Nc1cccc(-n2c(=O)n(C3CC3)c(=O)c3c(Nc4ccc(I)cc4F)n(C)c(=O)c(C)c32)c1 [Trametinib] (partner 0.02 µM)
Method in brief: as §1

Cell Line	relative viability (Vemurafenib + Pictilisib; first compound 0.03162 µM)	relative viability (Vemurafenib + Pictilisib; first compound 0.1 µM)	relative viability (Vemurafenib + Pictilisib; first compound 0.3162 µM)	relative viability (Vemurafenib + Pictilisib; first compound 1 µM)	relative viability (Alpelisib + Dasatinib; first compound 0.04 µM)	relative viability (Alpelisib + Dasatinib; first compound 0.1265 µM)	relative viability (Alpelisib + Dasatinib; first compound 0.4 µM)	relative viability (Alpelisib + Dasatinib; first compound 1.265 µM)	relative viability (Alpelisib + Dasatinib; first compound 4 µM)	relative viability ([1]; first compound 0.03162 µM)	relative viability ([1]; first compound 0.1 µM)	relative viability ([1]; first compound 1 µM)	relative viability (Alpelisib + Trametinib; first compound 0.04 µM)	relative viability (Alpelisib + Trametinib; first compound 0.1265 µM)	relative viability (Alpelisib + Trametinib; first compound 0.4 µM)	relative viability (Alpelisib + Trametinib; first compound 1.265 µM)	relative viability (Alpelisib + Trametinib; first compound 4 µM)	relative viability ([1]; first compound 0.3162 µM)
LU99A	0.282	0.311	0.297	0.286	0.446	0.482	0.554	0.409	0.379	0.386	0.401	0.373	0.573	0.558	0.599	0.425	0.386	–
NCI-H2009	0.829	0.858	0.605	0.572	0.309	0.281	0.353	0.223	0.198	0.175	0.172	0.199	0.264	0.276	0.28	0.285	0.224	0.161
LCLC-97TM1	0.195	0.194	0.39	0.149	0.843	0.75	0.855	0.641	0.566	–	0.22	0.207	0.194	0.167	0.165	0.133	0.159	0.22
NCI-H1915	0.751	0.903	0.908	0.85	0.29	0.28	0.313	0.268	0.276	0.526	0.496	0.487	0.307	0.304	0.312	0.285	0.26	0.554
NCI-H2342	–	–	–	–	0.327	0.313	0.306	0.269	0.272	0.512	0.461	0.548	0.754	0.854	0.671	0.604	0.67	0.541
EKVX	0.446	–	0.501	0.451	0.556	0.572	0.544	0.407	0.266	0.41	–	0.422	0.306	0.334	0.27	0.341	0.249	0.367
HCC-78	0.222	0.214	0.429	0.185	0.367	0.326	0.357	0.366	0.314	0.495	0.464	0.537	0.578	0.779	0.816	0.458	0.53	0.473
A549	0.532	0.43	0.607	0.453	–	–	–	–	–	–	–	–	–	–	–	–	–	–
NCI-H2126	0.494	0.4	0.572	0.471	0.599	0.564	0.507	0.354	0.307	0.328	0.354	0.333	0.545	0.504	0.526	0.416	0.381	0.344
HCC-827	0.791	–	1.03	0.981	0.378	0.427	0.296	0.234	0.233	0.413	–	0.511	0.547	0.504	0.492	0.401	0.33	0.509
NCI-H1650	0.487	–	0.581	0.601	0.316	0.309	0.322	0.257	0.271	0.314	0.255	0.351	0.688	0.487	0.638	0.505	0.544	0.356
NCI-H1703	0.245	0.21	0.233	0.252	–	–	–	–	–	–	–	–	–	–	–	–	–	–
LK-2	0.618	0.49	0.661	0.425	0.327	0.287	0.257	0.185	0.186	0.621	0.599	0.311	0.633	0.829	0.738	0.384	0.365	0.602
PC-14	0.584	–	0.805	0.696	0.256	0.243	0.23	0.221	0.202	0.449	–	0.537	0.735	0.686	0.62	0.292	0.709	0.504
NCI-H1355	0.419	0.426	0.377	0.395	0.708	0.551	0.699	0.434	0.443	0.384	0.325	0.45	0.397	0.421	0.386	0.356	0.292	0.436
LXF-289	0.711	0.724	0.698	0.758	0.257	0.164	0.177	0.121	0.114	0.548	0.526	0.667	0.632	0.632	0.71	0.609	0.694	0.601
LOU-NH91	0.535	0.459	–	0.525	0.478	0.482	0.482	0.452	0.34	0.515	0.497	0.551	0.773	0.686	0.696	0.649	0.591	0.536
EBC-1	0.36	0.335	0.335	0.36	–	–	–	–	–	–	–	–	–	–	–	–	–	–
SW 900	–	–	–	–	0.534	0.58	0.612	0.578	0.518	0.563	0.43	0.488	0.733	–	1.11	0.761	0.745	0.549
NCI-H1563	0.666	0.621	0.584	0.647	0.474	0.395	0.434	0.386	0.375	–	–	–	–	–	–	–	–	–
NCI-H522	–	–	–	–	0.952	0.772	0.786	0.709	0.647	0.822	0.743	1.26	0.673	0.756	0.683	0.681	0.542	0.857
HCC-44	0.443	0.5	0.478	0.646	–	–	–	–	–	0.957	0.887	0.926	1.05	1.12	1.03	0.849	0.81	0.957
NCI-H1623	–	–	–	–	0.528	0.496	0.513	0.414	0.353	–	–	–	–	–	–	–	–	–
